These results are taken from ChEMBL document CHEMBL5715945 (Cancer Biol Ther, 2010).

Activity calls are given as the source filed them. The calls are words filed in the database; no cut-off is given here.

The target in test [1] is Focal adhesion kinase 1 (Mus musculus) (UniProt P34152). The test can be described thus: Inhibition of FAK phosphorylation at Tyr397 residue in mouse 4T1 cells harbouring mCherry red fluorescent protein at 0.1 to 1 uM incubated for 1 hr by immunoblotting analysis. The class given is cell-based. To be noted: dose 0.1-1 µM. (In general: Immunoblotting shows a protein as a band on a membrane.)
Sequence of Focal adhesion kinase 1 (Mus musculus) (P34152 whole entry): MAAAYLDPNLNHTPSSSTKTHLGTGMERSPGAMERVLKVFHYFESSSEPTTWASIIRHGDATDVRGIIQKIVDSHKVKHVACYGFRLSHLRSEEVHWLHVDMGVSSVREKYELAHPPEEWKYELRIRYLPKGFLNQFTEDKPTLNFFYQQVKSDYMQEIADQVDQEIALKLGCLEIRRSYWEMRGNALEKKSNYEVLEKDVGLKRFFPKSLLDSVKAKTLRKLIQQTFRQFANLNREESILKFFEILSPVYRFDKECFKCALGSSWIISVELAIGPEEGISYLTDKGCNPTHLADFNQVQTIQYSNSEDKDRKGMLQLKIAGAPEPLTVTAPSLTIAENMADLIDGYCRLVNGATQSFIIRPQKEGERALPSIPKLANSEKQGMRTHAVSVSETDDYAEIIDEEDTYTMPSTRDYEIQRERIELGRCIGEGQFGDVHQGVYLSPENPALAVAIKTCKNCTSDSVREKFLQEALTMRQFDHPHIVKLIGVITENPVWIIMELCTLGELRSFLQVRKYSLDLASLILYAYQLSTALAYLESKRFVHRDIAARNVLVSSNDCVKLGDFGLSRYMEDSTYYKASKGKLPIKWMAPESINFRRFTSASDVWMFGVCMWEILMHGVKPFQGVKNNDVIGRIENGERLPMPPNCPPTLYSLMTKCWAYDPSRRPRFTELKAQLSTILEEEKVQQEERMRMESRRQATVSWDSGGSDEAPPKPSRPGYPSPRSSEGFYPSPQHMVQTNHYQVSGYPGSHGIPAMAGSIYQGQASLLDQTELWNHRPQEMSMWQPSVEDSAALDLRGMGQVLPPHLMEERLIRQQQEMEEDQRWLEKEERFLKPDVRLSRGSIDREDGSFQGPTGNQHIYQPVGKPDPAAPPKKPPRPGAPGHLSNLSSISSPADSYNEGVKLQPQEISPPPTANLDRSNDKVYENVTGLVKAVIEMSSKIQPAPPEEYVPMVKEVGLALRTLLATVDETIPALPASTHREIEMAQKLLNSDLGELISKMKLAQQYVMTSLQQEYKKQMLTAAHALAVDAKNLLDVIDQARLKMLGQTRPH

Test [2] deals with 4T1. The test is described as follows: Inhibition of Src phosphorylation at Tyr416 residue in mouse 4T1 cells harbouring mCherry red fluorescent protein incubated for 1 hr by immunoblotting analysis. To be noted: dose 0.1-1 µM. The test is classed as cell-based.
For test [3], the system named is 4T1. The test can be described thus: Inhibition of cell adhesion to fibronectin in mouse 4T1 cells at 0.4 uM incubated for 4 hrs by […]. The test is classed as functional, cell-based.

Regarding `Cc1nc(Nc2ncc(C(=O)Nc3c(C)cccc3Cl)s2)cc(N2CCN(CCO)CC2)n1`, the inhibition entry in test [1] and in test [3] was “inactive” in each case. Also, the inhibition result in test [2] is “Dose-Dependent Effect”.
